# Assay results reported in patent US8008506B2, “Indazole compounds” (priority 2008, dated 2011).
# What was measured:
# [1] = Test Example 13: stability in pure water; assay type: physicochemical
# Experimental: Test on Stability in Pure Water
# (§1) A test compound is prepared in pure water to be in the saturated state. This solution is shaken for one hour at room temperature. After the shaking, the entire amount of the solution is transferred into a filter tube, and the solution is filtered by centrifugation. The filtrate is analyzed by HPLC immediately after filtration, 24 hours after filtration, and 48 hours after filtration. The stability of the test compound is determined using a calibration curve, based on the peak area value.
# A standard solution is prepared by precisely weighing each test compound, and preparing a solution that sufficiently dissolves in pure water. The calibration curve is produced by assigning the concentration of the standard solution to the horizontal axis, and assigning the HPLC area peak at the concentration to the vertical axis.
# YMC-Pack C18 (4.6 mm×150 mm) (manufactured by YMC Co., Ltd.) is used as a separating column. The detection is performed with UV-254 nm. The temperature in the column is set at 40° C. Elution is carried out at a flow rate of 1 ml/min, using solution A=water [containing 0.1% (v/v) acetic acid] and solution B=acetonitrile as the solvents, under the conditions in which a linear gradient of the solution B is run from 5 to 98% (v/v) from zero minute to 20 minute, subsequently solution B is eluted at 98% up to 25 minute, and the solution B is eluted at 5% from 25.01 minute to 35 minute.
# [2] = Test Example 14: stability in phosphate buffer solution at pH 6.8; assay type: physicochemical
# Experimental: as §1
# Test on Stability in Phosphate Buffer Solution at pH 6.8
# The stability of a test compound is determined by performing the same test as that performed in Test Example 13, except that the pure water is changed to a phosphate buffer solution at pH 6.8.
# [3] = molecular target: T1, human β3 adrenergic receptor (Homo sapiens, UniProt P13945); experiment: Test Example 1-A: human β3 adrenergic receptor agonist activity (cAMP EIA, transfected CHO cells, 24-well); assay type: cell-based; details: Table 1; for EC50: Test Example 1-A; for β3 receptor I.A.: maximum response to isoproterenol taken as 100%
# T1 construct: the full length human β3 gene is obtained from a human genomic library; expressed in transfected cells; host or cells: CHO (Chinese Hamster Ovary) cells, pcDNA3, geneticin selection
# Experimental: Measurement of Human β3 Adrenergic Receptor Agonist Activity
# (§2) The measurement of human β3 adrenergic receptor agonist activity is carried out using CHO (Chinese Hamster Ovary) cells transfected with pcDNA3 (manufactured by Invitrogen, Inc.) to which human β3 gene has been inserted. […] This human β3 cDNA fragment is used as a probe, and the full length human β3 gene is obtained from a human genomic library (manufactured by Clontech Laboratories, Inc.). The above cells are cultured in Ham's F-12 medium containing 10% fetal bovine serum and 400 μg/ml geneticin (manufactured by Invitrogen, Inc.). These cells are seeded on a 24-well plate to a concentration of 1×10^5 cells/well, and after being cultured for about 20 hours, the cells are left to stand in serum-free Ham's F-12 medium for 2 hours. A test compound is initially dissolved in DMSO, and then is diluted stepwise with Ham's F-12 containing 20 mmol/L HEPES, 1 mmol/L isobutylmethylxanthine, and 1 mmol/L ascorbic acid. The dilution is added to the cells. After the cells are cultured for 30 minutes, and then the medium is removed, followed by addition of 0.1 ml of 1 N NaOH to the cells. The cells are left to stand for 20 minutes, and then are added with 0.1 ml of 1 N acetic acid and are stirred. The resulting cell lysate is centrifuged, and then is subjected to quantification of cAMP with cAMP EIA kit (manufactured by Cayman Chemical Co.).
# [4] = molecular target: T2, human β1 adrenergic receptor (Homo sapiens, UniProt P08588); experiment: Test Example 2-A: human β1 adrenergic receptor agonist activity (method of Test Example 1-A); assay type: cell-based; details: Table 1; for β1 receptor EC50: Test Example 2-A; for β1 receptor I.A.: maximum response to isoproterenol taken as 100%
# T2 construct: expressed in transfected cells; host or cells: CHO (Chinese Hamster Ovary) cells, pcDNA3
# Experimental: as §2, with “Co.). […] Measurement of Human β1 Adrenergic Receptor Agonist Activity” for “Co.).”
# [5] = molecular target: T3, human β2 adrenergic receptor (Homo sapiens, UniProt P07550); experiment: Test Example 3-A: human β2 adrenergic receptor agonist activity (method of Test Example 1-A); assay type: cell-based; details: Table 1; for β2 receptor EC50: Test Example 3-A; for β2 receptor I.A.: maximum response to isoproterenol taken as 100%
# T3 construct: expressed in transfected cells; host or cells: CHO (Chinese Hamster Ovary) cells, pcDNA3
# Experimental: [Worded in the source for another target; this target is reported under the same test.] as §2, with “Co.). […] Measurement of Human β2 Adrenergic Receptor Agonist Activity” for “Co.).”
# T2 sequence (P08588 whole entry): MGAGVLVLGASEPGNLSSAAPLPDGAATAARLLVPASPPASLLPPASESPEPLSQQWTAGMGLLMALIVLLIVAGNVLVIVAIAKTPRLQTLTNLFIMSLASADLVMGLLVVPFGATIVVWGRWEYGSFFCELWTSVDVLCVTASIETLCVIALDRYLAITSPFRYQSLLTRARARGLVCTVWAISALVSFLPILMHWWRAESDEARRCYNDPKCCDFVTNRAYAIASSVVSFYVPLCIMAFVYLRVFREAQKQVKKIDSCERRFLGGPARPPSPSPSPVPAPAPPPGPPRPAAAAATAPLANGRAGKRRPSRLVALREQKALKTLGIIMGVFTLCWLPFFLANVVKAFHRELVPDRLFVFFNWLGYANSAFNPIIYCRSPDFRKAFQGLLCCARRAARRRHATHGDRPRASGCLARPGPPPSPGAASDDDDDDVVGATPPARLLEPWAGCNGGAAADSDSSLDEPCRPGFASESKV
# T3 sequence (P07550 whole entry): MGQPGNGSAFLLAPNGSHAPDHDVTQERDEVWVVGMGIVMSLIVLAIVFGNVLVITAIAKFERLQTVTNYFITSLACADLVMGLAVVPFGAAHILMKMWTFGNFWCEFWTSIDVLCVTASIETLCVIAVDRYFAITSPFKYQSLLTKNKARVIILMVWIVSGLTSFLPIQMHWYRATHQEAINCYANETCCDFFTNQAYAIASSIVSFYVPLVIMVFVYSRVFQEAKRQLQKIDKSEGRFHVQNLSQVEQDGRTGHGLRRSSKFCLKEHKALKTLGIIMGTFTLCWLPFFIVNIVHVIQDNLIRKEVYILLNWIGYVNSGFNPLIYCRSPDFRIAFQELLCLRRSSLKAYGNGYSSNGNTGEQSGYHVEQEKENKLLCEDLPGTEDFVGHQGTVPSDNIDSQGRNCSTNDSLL
# T1 sequence (P13945 whole entry): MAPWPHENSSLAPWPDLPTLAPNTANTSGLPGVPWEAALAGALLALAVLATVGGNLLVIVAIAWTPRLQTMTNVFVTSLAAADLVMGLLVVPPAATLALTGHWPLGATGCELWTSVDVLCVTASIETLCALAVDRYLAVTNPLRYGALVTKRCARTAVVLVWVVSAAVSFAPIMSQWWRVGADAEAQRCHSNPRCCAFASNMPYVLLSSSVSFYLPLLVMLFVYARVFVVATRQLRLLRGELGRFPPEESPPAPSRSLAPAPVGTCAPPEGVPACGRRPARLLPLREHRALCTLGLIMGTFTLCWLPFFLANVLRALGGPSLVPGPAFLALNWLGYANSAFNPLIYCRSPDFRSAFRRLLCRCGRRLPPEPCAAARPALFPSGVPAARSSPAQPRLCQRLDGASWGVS
Compound,HPLC area percent ([1]; after 24 hours),HPLC area percent ([1]; after 48 hours),HPLC area percent ([1]; immediately after filtration),HPLC area percent ([2]; after 24 hours),HPLC area percent ([2]; after 48 hours),HPLC area percent ([2]; immediately after filtration),EC50 [3],β3 receptor I.A. [3],β1 receptor EC50 [4],β1 receptor I.A. [4],β2 receptor EC50 [5],β2 receptor I.A. [5]
"CC(C)c1n[nH]c2cc(OCCNC[C@H](O)c3cccc(NS(C)(=O)=O)c3)ccc12 [Example 1, (R)-N-(3-(1-hydroxy-2-(2-(3-isopropylindazol-6-yloxy)ethylamino)ethyl)phenyl)methanesulfonamide]",99.8%,99.8%,100%,99.9%,100%,99.8%,,,,,,
"CCc1n[nH]c2cc(OCCNC[C@H](O)c3cccc(NS(C)(=O)=O)c3)ccc12 [Example 2, (R)-N-(3-(1-hydroxy-2-(2-(3-ethylindazol-6-yloxy)ethylamino)ethyl)phenyl)methanesulfonamide]",98.2%,98.2%,98.2%,98.2%,98.2%,98.2%,29 nM,77%,a),8.1%,a),3.0%
"CN(C)C(=O)CCc1n[nH]c2cc(OCCNC[C@H](O)c3cccc(NS(C)(=O)=O)c3)ccc12 [Example 5, (R)-3-(6-(2-(2-hydroxy-2-(3-(methylsulfonamido)phenyl)ethylamino)ethoxy)-indazol-3-yl)-N,N-dimethylpropanamide]",,,,,,,51 nM,75%,a),3.3%,a),3.2%
"COCc1n[nH]c2cc(OCCNC[C@H](O)c3cccc(NS(C)(=O)=O)c3)ccc12 [Example 6, (R)-N-(3-(1-hydroxy-2-(2-(3-methoxymethylindazol-6-yloxy)ethylamino)ethyl)phenyl)methanesulfonamide]",,,,,,,7.4 nM,82%,a),3.3%,a),7.6%

# Other lines, results leading:
HPLC area percent ([1]; after 24 hours),HPLC area percent ([1]; after 48 hours),HPLC area percent ([1]; immediately after filtration),HPLC area percent ([2]; after 24 hours),HPLC area percent ([2]; after 48 hours),HPLC area percent ([2]; immediately after filtration),EC50 [3],β3 receptor I.A. [3],β1 receptor EC50 [4],β1 receptor I.A. [4],β2 receptor EC50 [5],β2 receptor I.A. [5],Compound
,,,,,,29 nM,77%,,,,,"CCCc1n[nH]c2cc(OCCNC[C@H](O)c3cccc(NS(C)(=O)=O)c3)ccc12 [Example 3, (R)-N-(3-(1-hydroxy-2-(2-(3-propylindazol-6-yloxy)ethylamino)ethyl)phenyl)methanesulfonamide]"
98.7%,98.6%,98.7%,99.6%,99.6%,99.6%,,,,,,,"CS(=O)(=O)Nc1cccc([C@@H](O)CNCCOc2ccc3c(C(F)(F)F)n[nH]c3c2)c1 [Example 4, (R)-N-(3-(1-hydroxy-2-(2-(3-trifluoromethylindazol-6-yloxy)ethylamino)ethyl)phenyl)methanesulfonamide]"
